Source: paper PMC3774136 (Bioorganic & medicinal chemistry letters, 2013)
Like-named read-outs stand apart in the source and are kept apart here.

Experiments:
[1] = system: MCF-7 human breast cancer cells; assay: Growth of MCF-7 human breast cancer cells; format: cell-based; details: compared with CA-4
tubulin = details: read-out: Tubulin polymerization IC50; as reported in the literature; cited from earlier work
[2] = system: tubulin (colchicine site); details: as reported in the literature, cited from earlier work

Structure (SMILES) | Cytotoxic activity in MCF-7 cells (in words) [1] | IC50 (tubulin) [nM] | Inhibition of binding of colchicine, % inhibition ([2]; 1 µM inhibitor) [%] | Inhibition of binding of colchicine, % inhibition ([2]; 5 µM inhibitor) [%]
COc1ccc(Sc2cc(OC)c(OC)c(OC)c2)cc1[N+](=O)[O-] [Compound 2] | inactive |  |  | 
COc1ccc([Se][Se]c2ccc(OC)cc2)cc1 [Compound 13] | inactive |  |  | 
COc1ccc([Se]c2ccc(OC)cc2)cc1 [Compound 12] | inactive |  |  | 
COc1cc(SSc2cc(OC)c(OC)c(OC)c2)cc(OC)c1OC [Compound 8] | inactive |  |  | 
COc1ccc(Sc2cc(OC)c(OC)c(OC)c2)cc1 [Compound 1] |  | 1200 ± 100 | 56 ± 7 | 89 ± 1
